Data set [1] deals with vancomycin-resistant Enterococcus faecium 11–47. As to conditions: vancomycin-resistant 11–47.
Data set [2] has as its system MDR Enterobacter cloacae 7–86. As to conditions: microdilution method in the corresponding broth. Background: In broth dilution the organism is exposed to a series of concentrations in liquid medium.
Data set [3] has as its system A. baumannii YQ4 preformed biofilm. Put plainly: biofilm eradication assay, crystal violet. The format is cell-based, Acinetobacter baumannii. The following applies: 48 h preformed biofilm, 24 h treatment.
Protocol: Biofilm eradication assay was performed as described previously (Mwangi et al., [2019]). A. baumannii YQ4 culture of log phase was diluted in fresh LB broth to OD600 0.01 and dispensed to a 96-well PVC plate with 200 μl per well. Plates were incubated at 37°C for 48 h and washed with PBS three times. Serial dilutions of COG1410 (0.5–128 μg/ml) were prepared using the same media, and 200 μl were dispensed into each well. Each concentration was determined in eight wells. LB without COG1410 was used as untreated control. After incubation for another 24 h, the remaining biofilm was quantified as described above. The experiments were performed in triplicate.
In data set [4] the test system is Escherichia coli ATCC25922.
Data set [5] concerns PDR Acinetobacter baumannii YQ4. As to the kind of experiment: microbe, parasite or virus in culture. The format is cell-based. As for the experimental part: (§1) Strain stocks were maintained at −80°C in 10% glycerol. Bacteria were streaked on fresh plates before each experiment. Most of them were cultured in LB broth containing 10 g/L NaCl at 37°C, except for Mycobacteria in 7H9 broth and Enterococcus in BHI broth. Porphyromonas gingivalis was cultured in BHI broth supplemented with 1 μg/ml vitamin k1, 5 μg/ml hemin, and 5 mg/ml L-cysteine hydrochloride at 37°C in the anaerobic chamber. The minimal inhibitory concentrations (MICs) of antimicrobials were determined using the microdilution method in the corresponding broth.
The pandrug-resistant A. baumannii YQ4 was collected from the clinical laboratory of the second hospital in Nanjing. The complete genome was sequenced by Nanopore, and the data were deposited in the GenBank with accession number CP053033.

Data set [6] has as its system clinically collected A. baumannii strains. On the procedure: as §1
TAble S2. Determination of bactericidal effect of COG1410 against clinically collected A. baumannii strains. MIC was measured in LB broth by microdilution method.

In data set [7] the test system is methicillin-resistant Staphylococcus aureus 14–55. The following applies: microdilution method in the corresponding broth.
Data set [8] has as its system pandrug-resistant (PDR) Acinetobacter baumannii YQ4.
Data set [9] has as its system human red blood cell (RBC). As to conditions: 1 h.
Protocol: The anti-coagulated (citrate) whole blood sample was pelleted by centrifugation at 700 g for 8 min, washed three times with PBS, and suspended in 0.5% (vol/vol) PBS. […] The highest concentration was 512 μg/ml (363 μM). PBS and Triton X-100 (0.1%) were used as negative and positive controls, respectively. The plate was incubated at 37°C for 1 h, followed by centrifugation at 1,000 rpm for 5 min at 4°C. Aliquots of 60 μl of the supernatant from each well were quickly transferred to a new flat-bottom 96-well plate. The optical absorbance at OD414 was measured with a microplate reader (BioTek, synergy H1). The hemolysis percentage was then normalized with respect to the averaged negative (0%) and positive (100%) controls. Three independent experiments were conducted.
The subject of a further data set is plasmid pUC18. Put plainly: DNA-binding assay, gel retardation. On the procedure: Gel retardation experiments were conducted as previously described (Yan et al., [2013]). Briefly, 300 ng of the plasmid pUC18 was mixed with different concentrations of COG1410 in 30 μl of buffer (10 mM Tris-HCl and 1 mM EDTA buffer, pH 8.0) and incubated at room temperature for 30 min. The reaction mixtures were mixed with 1 × native loading buffer and subjected to 1.5% agarose gel electrophoresis. The migration of DNA was detected by the fluorescence of GelRed dye.

In data set [10] the test system is A. baumannii YQ4. Put plainly: Live/Dead BacLight SYTO-9/PI staining, confocal microscopy. The format is cell-based, Acinetobacter baumannii. The following applies: 1× MIC COG1410 (16 μg/ml) or 5× MIC polymyxin B (80 μg/ml), 37°C, 30 min.
Protocol: The damage to the cytoplasmic membrane was determined as described previously (Farkas et al., [2017]), with the Live/Dead BacLight bacterial viability kit (Invitrogen L7012). The log-phase culture of A. baumannii YQ4 was washed two times and suspended in PBS with the final OD600 of 0.1. […] Then, the cells were stained with 7.5 μM SYTO-9 and 30 μM propidium iodide (PI) in dark for 15 min. In total, 5 μl of culture was spotted on a clean slide coated with a thin layer of 1% agarose. The fluorescence was observed by Olympus FV3000 confocal laser scanning microscope. For SYTO-9, the excitation and emission were 483 and 503 nm, respectively. For PI, the excitation and emission were 493 and 636 nm, respectively.
Data set [11] deals with panel of Gram-positive and Gram-negative strains. As to the kind of experiment: MIC on a panel of strains. The format is cell-based. The following applies: Streptococcus pneumoniae, methicillin-sensitive S. aureus, MRSA, Klebsiella pneumoniae, Pseudomonas aeruginosa.
Protocol: The antimicrobial activity of COG1410 was determined by measuring the minimal inhibition concentration (MIC) values on a panel of Gram-positive and Gram-negative strains (Table 1).
For data set [12], the system named is PDR Klebsiella pneumoniae 84. The following applies: microdilution method in the corresponding broth.
A further data set has as its system MDR Serratia mucosa YQ15. The following applies: microdilution method in the corresponding broth.
In data set [13] the test system is A. baumannii YQ4. Put plainly: antibacterial activity (LC99.9) in PBS or 50% pooled human plasma. It counts as cell-based, Acinetobacter baumannii. As to conditions: 2 h, 37°C. As for the experimental part:
The antibacterial activity of COG1410 in plasma was performed as described previously (De Breij et al., [2018]). Briefly, the log-phase culture of A. baumannii YQ4 was exposed to different concentrations of COG1410 in PBS or PBS supplemented with 50% (v/v) pooled human plasma. After incubation with shaking at 200 rpm at 37°C for 2 h, the CFU was counted on LB agar. LC99.9 indicates the lowest peptide concentration that kills ≥99.9% of bacteria. The experiments were conducted independently in triplicate.

Values after ≈ are worked out from the molar mass of the structure shown. Non-standard residues stand in square brackets, D forms with d. Residues, ends and D or L forms follow the SMILES beside them. Aib = CC(C)(N)C(=O)O

Results on one compound are retold here after article PMC9445589, “Apolipoprotein E mimetic peptide COG1410 combats pandrug-resistant Acinetobacter baumannii” (Frontiers in Microbiology, 2022).

In the case of `CC(=O)N[C@@H](C)C(=O)N[C@@H](CO)C(=O)NC(C)(C)C(=O)N[C@@H](CC(C)C)C(=O)N[C@@H](CCCNC(=N)N)C(=O)N[C@@H](CCCCN)C(=O)N[C@@H](CC(C)C)C(=O)NC(C)(C)C(=O)N[C@@H](CCCCN)C(=O)N[C@@H](CCCNC(=N)N)C(=O)N[C@@H](CC(C)C)C(=O)N[C@@H](CC(C)C)C(N)=O` [COG1410, acetyl-AS-Aib-LRKL-Aib-KRLL-amide] (Ac-AS[Aib]LRKL[Aib]KRLL-NH2), the MIC was found to be 16 µg/mL (≈ 11.4 µM) in data set [1]; 64 µg/mL (≈ 45.4 µM) in data set [2]; 64 µg/mL (≈ 45.4 µM) in [4]; 11.3 µM in data set [5] (PDR YQ4); 16 µg/mL in data set [5] (microdilution method, LB broth); 32 µg/mL (≈ 22.7 µM) in data set [6] (strain Ab3-1 (MDR-Ab, hydrothorax and ascite), LB broth). Besides, the MIC (in data set [7]; in data set [12]; with MDR Serratia mucosa YQ15) was greater than 256 µg/mL throughout. The mature biofilm dispersed result in data set [3] (1× MIC) was “approximately 46%”. In addition, in data set [3] (4 × MIC), the biofilm eradicated result is “more than 88%”. For the same compound, the “MICs over 107 clinically collected A. baumannii strains” value in data set [6] (clinically collected strains) was in the range of 16 to 32 µg/mL. In addition, the “minimal bactericidal concentration (MBC)” value in data set [8] is 16 µg/mL (≈ 11.4 µM). For the same compound, the “EC50, lysis of half of the red blood cells” value in data set [9] turned out to be 441 µg/mL. This compound also returned a hemolysis in data set [9] (red cells of human, 128 μg/ml) of less than 5%. Also, the “electrophoretic mobility of pUC18” value in the data set with plasmid pUC18 (1× MIC, 300 ng plasmid, 30 min room temperature, 1.5% agarose) is “only part of them migrated”; with plasmid pUC18 (higher concentrations than 1× MIC), “completely retarded”. Besides, the “SYTO-9/PI staining of treated cells” value with A. baumannii YQ4 [10] is recorded as “red fluorescence”. Further, the “antimicrobial activity in words” value in [11] was “inactive”. Moreover, the LC99.9 was 8 µg/mL in the data set with A. baumannii YQ4 [13] (PBS with 50% (v/v) pooled human plasma) and 2 µg/mL in the data set with A. baumannii YQ4 [13] (PBS, lowest concentration that kills ≥99.9% of bacteria).
